From patent US20220289708A1, “SUBSTITUTED N-PHENYL URACILS, SALTS THEREOF AND THEIR USE AS HERBICIDAL AGENTS” (Bayer Aktiengesellschaft, priority 2019, published 2022)

Experiments:
Format in all cases: in vivo
Veronica persica [1] = assay: Pre-emergence herbicidal action; conditions: application rate 20 g/ha
How it was run: (§1)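 Compounds formulated as WP or EC were sprayed onto the soil surface over freshly sown seeds as aqueous suspension/emulsion with 0.5% additive, at 600 l/ha water, at 80 g/ha or less. Greenhouse-grown plants were visually scored after about 3 weeks as % activity versus untreated controls (100% = plants dead).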

Polygonum convolvulus [2] = assay: Pre-emergence herbicidal action; conditions: application rate 20 g/ha
How it was run: as §1

Amaranthus retroflexus [3] = assay: Pre-emergence herbicidal action; conditions: application rate 20 g/ha
How it was run: as §1

Setaria viridis [4] = assay: Pre-emergence herbicidal action; conditions: application rate 20 g/ha
How it was run: as §1

Viola tricolor [5] = assay: Pre-emergence herbicidal action; conditions: application rate 20 g/ha
How it was run: as §1

Abutilon theophrasti [6] = assay: Pre-emergence herbicidal action; conditions: application rate 20 g/ha
How it was run: as §1

Matricaria inodora [7] = assay: Pre-emergence herbicidal action; conditions: application rate 20 g/ha
How it was run: as §1

Alopecurus myosuroides [8] = assay: Pre-emergence herbicidal action
How it was run: as §1

Digitaria sanguinalis [9] = assay: Pre-emergence herbicidal action; conditions: application rate 20 g/ha
How it was run: as §1

Echinochloa crus-galli [10] = assay: Pre-emergence herbicidal action
How it was run: as §1

Avena fatua = assay: Pre-emergence herbicidal action
How it was run: as §1

Lolium rigidum = assay: Pre-emergence herbicidal action; conditions: application rate 80 g/ha
How it was run: as §1

Pharbitis purpurea [11] = assay: Pre-emergence herbicidal action
How it was run: as §1

Glycine max = assay: Pre-emergence crop plant compatibility; conditions: application rate 20 g/ha, observed effect on crop vs untreated controls after about 3 weeks
Source text: (§2) B. Pre-Emergence Herbicidal Action and Crop Plant Compatibility
(§3) Seeds of monocotyledonous and dicotyledonous weed plants and crop plants were placed in plastic or organic planting pots and covered with soil. The compounds of the invention, formulated in the form of wettable powders (WP) or as emulsion concentrates (EC), were then applied to the surface of the covering soil as aqueous suspension or emulsion with addition of 0.5% additive at a water application rate equivalent to 600 l/ha (converted). After the treatment, the pots were placed in a greenhouse and kept under good growth conditions for the test plants. After about 3 weeks, the effect of the preparations was scored visually in comparison with untreated controls as percentages. For example, 100% activity=the plants have died, 0% activity=like control plants.
(§4) Tables B14 to B16 below show the crop plant compatibilities of selected compounds of the general formula (I) according to Tables I.1 to I.36 at an application rate corresponding to 20 g/ha, which were obtained in experiments according to the experimental procedure mentioned above. Here, the observed effects on selected crop plants are stated in comparison to the untreated controls (values in %).

Oryza sativa = assay: Post-emergence crop plant compatibility; conditions: application rate 5 g/ha
How it was run: (§5)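 Greenhouse crop plants in sandy loam sprayed at one-leaf stage (2-3 weeks after sowing) with WP or EC formulations plus 0.5% additive, 600 l/ha water, at 5 g/ha or 20 g/ha. Damage scored visually after about 3 weeks as % versus untreated controls (100% = plants dead).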

Triticum aestivum [12] = assay: Post-emergence crop plant compatibility; conditions: application rate 5 g/ha
How it was run: as §5

Veronica persica [13] = assay: Post-emergence herbicidal action; conditions: application rate 5 g/ha
How it was run: (§6)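 Greenhouse-grown plants in sandy loam were sprayed at the one-leaf stage, 2 to 3 weeks after sowing, with compounds formulated as WP or EC in water plus 0.5% additive at 600 l/ha, at rates of 20 g/ha and less. Activity was scored visually after about 3 weeks against untreated controls (100% = dead).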

Amaranthus retroflexus [14] = assay: Post-emergence herbicidal action; conditions: application rate 5 g/ha, rated visually after about 3 weeks vs untreated controls
How it was run: as §6

Abutilon theophrasti [15] = assay: Post-emergence herbicidal action; conditions: application rate 5 g/ha, rated visually after about 3 weeks vs untreated controls
How it was run: as §6

Digitaria sanguinalis [16] = assay: Post-emergence herbicidal action; conditions: rated visually after about 3 weeks vs untreated controls
How it was run: as §6

Echinochloa crus-galli [17] = assay: Post-emergence herbicidal action; conditions: application rate 5 g/ha, rated visually after about 3 weeks vs untreated controls
How it was run: as §6

Pharbitis purpurea [18] = assay: Post-emergence herbicidal action; conditions: application rate 5 g/ha, rated visually after about 3 weeks vs untreated controls
How it was run: as §6

Triticum aestivum [19] = assay: Pre-emergence crop plant compatibility; conditions: application rate 20 g/ha
Source text: as §2, §3, §4

Zea mays = assay: Pre-emergence crop plant compatibility; conditions: application rate 20 g/ha
Source text: as §2, §3, §4

Matricaria inodora [20] = assay: Post-emergence herbicidal action; conditions: application rate 5 g/ha, rated visually after about 3 weeks vs untreated controls
How it was run: as §6

Polygonum convolvulus [21] = assay: Post-emergence herbicidal action; conditions: application rate 5 g/ha
How it was run: as §6

Setaria viridis [22] = assay: Post-emergence herbicidal action; conditions: application rate 5 g/ha, rated visually after about 3 weeks vs untreated controls
How it was run: as §6

Viola tricolor [23] = assay: Post-emergence herbicidal action; conditions: application rate 5 g/ha
How it was run: as §6

Alopecurus myosuroides [24] = assay: Post-emergence herbicidal action; conditions: application rate 5 g/ha, rated visually after about 3 weeks vs untreated controls
How it was run: as §6

Compound | Veronica persica (efficacy in %) (Veronica persica [1]) | Polygonum convolvulus (efficacy in %) (Polygonum convolvulus [2]) | Amaranthus retroflexus (efficacy in %) (Amaranthus retroflexus [3]) | Setaria viridis (efficacy in %) (Setaria viridis [4]) | Viola tricolor (efficacy in %) (Viola tricolor [5]) | Abutilon theophrasti (efficacy in %) (Abutilon theophrasti [6]) | Matricaria inodora (efficacy in %) (Matricaria inodora [7]) | Alopecurus myosuroides (efficacy in %) (Alopecurus myosuroides [8]; application rate 80 g/ha) | Digitaria sanguinalis (efficacy in %) (Digitaria sanguinalis [9]) | Avena fatua (efficacy in %) (Avena fatua; application rate 80 g/ha) | Lolium rigidum (efficacy in %) (Lolium rigidum) | Pharbitis purpurea (efficacy in %) (Pharbitis purpurea [11]; application rate 20 g/ha) | Triticum aestivum (efficacy in %) (Triticum aestivum [12]) | Veronica persica (efficacy in %) (Veronica persica [13]) | Amaranthus retroflexus (efficacy in %) (Amaranthus retroflexus [14]) | Abutilon theophrasti (efficacy in %) (Abutilon theophrasti [15]) | Digitaria sanguinalis (efficacy in %) (Digitaria sanguinalis [16]; application rate 5 g/ha) | Echinochloa crus-galli (efficacy in %) (Echinochloa crus-galli [17]) | Pharbitis purpurea (efficacy in %) (Pharbitis purpurea [18]) | Triticum aestivum (efficacy in %) (Triticum aestivum [19]) | other results
Cn1c(C(F)(F)F)cc(=O)n(-c2cc(Oc3cccnc3OCC(=O)OCCOC(F)(F)F)c(Cl)cc2F)c1=O [I.15-41] | 100% | 100% | 100% | 100% | 100% | 100% | 100% | 100% | 100% | 90% | 100% | 100% | 20% | 100% | 100% | 100% | 100% | 100% | 100% | – | Echinochloa crus-galli (efficacy in %) (Echinochloa crus-galli [10]; application rate 80 g/ha): 100%; Glycine max (efficacy in %) (Glycine max): 20%; Oryza sativa (efficacy in %) (Oryza sativa): 20%
Cn1c(C(F)(F)F)cc(=O)n(-c2cc(Oc3cccnc3OCC(=O)OCCOCc3ccccc3)c(Cl)cc2F)c1=O [I.15-6] | 100% | 100% | 100% | 100% | 100% | 100% | 100% | – | 100% | 100% | 100% | 100% | 20% | 100% | 100% | 100% | 100% | 100% | 100% | 10% | Alopecurus myosuroides (efficacy in %) (Alopecurus myosuroides [8]; application rate 20 g/ha): 90%; Echinochloa crus-galli (efficacy in %) (Echinochloa crus-galli [10]; application rate 80 g/ha): 100%; Zea mays (efficacy in %) (Zea mays): 0%; Oryza sativa (efficacy in %) (Oryza sativa): 20%
Cn1c(C(F)(F)F)cc(=O)n(-c2cc(Oc3cccnc3OCC(=O)OCC[Si](C)(C)C)c(Cl)cc2F)c1=O [I.15-211] | 100% | 100% | 100% | 100% | 100% | 100% | 100% | 100% | 100% | 80% | 100% | 80% | 0% | 100% | 100% | 100% | 100% | 100% | 80% | 0% | Echinochloa crus-galli (efficacy in %) (Echinochloa crus-galli [10]; application rate 20 g/ha): 80%; Zea mays (efficacy in %) (Zea mays): 20%; Oryza sativa (efficacy in %) (Oryza sativa): 0%
CC(C#N)COC(=O)COc1ncccc1Oc1cc(-n2c(=O)cc(C(F)(F)F)n(C)c2=O)c(F)cc1Cl (centres unmarked) [I.15-405] | 100% | 90% | 100% | 100% | 100% | 100% | 100% | 100% | 100% | 100% | 100% | 100% | – | 100% | – | – | 100% | 100% | 100% | 20% | Echinochloa crus-galli (efficacy in %) (Echinochloa crus-galli [10]; application rate 20 g/ha): 80%; Zea mays (efficacy in %) (Zea mays): 0%; Matricaria inodora (efficacy in %) (Matricaria inodora [20]): 80%
COCCOCCOCCOCCOC(=O)COc1ncccc1Oc1cc(-n2c(=O)cc(C(F)(F)F)n(C)c2=O)c(F)cc1Cl [I.15-154] | 100% | 100% | 100% | 100% | 100% | 100% | 100% | 100% | 100% | 100% | 100% | – | 0% | 100% | 100% | 100% | – | – | 100% | 10% | Echinochloa crus-galli (efficacy in %) (Echinochloa crus-galli [10]; application rate 80 g/ha): 100%; Pharbitis purpurea (efficacy in %) (Pharbitis purpurea [11]; application rate 80 g/ha): 100%; Zea mays (efficacy in %) (Zea mays): 0%; Oryza sativa (efficacy in %) (Oryza sativa): 0%; Digitaria sanguinalis (efficacy in %) (Digitaria sanguinalis [16]; application rate 20 g/ha): 100%
Cn1c(C(F)(F)F)cc(=O)n(-c2cc(Oc3cccnc3OCC(=O)OCC3NC(=O)NC3=O)c(Cl)cc2F)c1=O (centres unmarked) [I.15-280] | 100% | 100% | 100% | 100% | 100% | 100% | 100% | – | 100% | – | 100% | 90% | 20% | 100% | 100% | 100% | 100% | 80% | 100% | 10% | Alopecurus myosuroides (efficacy in %) (Alopecurus myosuroides [8]; application rate 20 g/ha): 90%; Echinochloa crus-galli (efficacy in %) (Echinochloa crus-galli [10]; application rate 20 g/ha): 90%; Avena fatua (efficacy in %) (Avena fatua; application rate 20 g/ha): 80%; Glycine max (efficacy in %) (Glycine max): 0%; Polygonum convolvulus (efficacy in %) (Polygonum convolvulus [21]): 100%; Setaria viridis (efficacy in %) (Setaria viridis [22]): 100%; Viola tricolor (efficacy in %) (Viola tricolor [23]): 100%; Matricaria inodora (efficacy in %) (Matricaria inodora [20]): 90%; Alopecurus myosuroides (efficacy in %) (Alopecurus myosuroides [24]): 90%
